Like-named read-outs stand apart in the source and are kept apart here.
Experiments:
[1] = system: EZH2-mediated histone H3 Lys27 trimethylation in Pfeiffer cells (mutant EZH2 A677G); assay: Tri-Methyl Histone H3 (Lys 27) Sandwich ELISA in Pfeiffer cells; type: cell-based, human
Description: Briefly, Pfeiffer cells were cultured in RPMI medium supplemented with 10% fetal bovine serum and 1% penicillin and 1% streptomycin in 96 well culture plates at 37° C. to a density of 8000 cells/90 μl/well and the cells were harvested. […] The plates were incubated at 37° C. for 96 hours.
After incubation, the cells were pelleted by centrifugation in a pre-cooled 4° C. rotor at 1,100 rpm for 10 min and the supernatant was removed by aspiration. The cell pellet was resuspended in 55 μl of Lysis Buffer (0.4M HCl) and incubated on ice with periodic shaking for 30 minutes. The lysed cells were subjected to centrifugation at 4,200 rpm for 10 min at 4° C. and the supernatant containing acid-soluble proteins was collected and the remainder discarded.
A 65 μl aliquot of each cell lysate was added to a well of a microwell strip, the microwells were sealed using tape and incubated either at 37° C. for two hours or at 4° C. overnight. After incubation, the tape was removed at the microwells were washed four times using 200 μl of 1× Wash Buffer. To each washed microwell, a 100 μl aliquot of an anti-trimethyl histone H3 Lys27 Detection Antibody solution was added and the microwells were incubated at 37° C. for one hour. The Detection Antibody solution was removed by aspiration and the wells were washed four times each using 200 μl of 1× Wash Buffer.
A 100 μl aliquot of an HRP-linked secondary antibody was added to each well, the wells were sealed with tape and incubated at 37° C. for 30 min. The HRP-linked secondary antibody solution was removed by aspiration and the wells were washed four times using 200 μl of 1× Wash Buffer. A 100 μl aliquot of a TMB substrate was added to each well, the wells were sealed with tape and incubated at 37° C. for 10 min or 25° C. for 30 min. The reaction was stopped by the addition of 100 μl aliquot of a STOP solution and the plate was shaken briefly. The degree of histone H3 trimethylation was determined using a spectrophotometric readout by measuring the absorbance at 450 nm and then calculating the amount of trimethylated histone H3.

[2] = biological target: purified EZH2 enzyme (Homo sapiens (Human), UniProt Q15910); assay: biochemical; details: purified EZH2, 4 μM SAM, histone 3.3 substrate, 30° C. three hours, fluorescence polarization readout
[3] = Homo sapiens, Pfeiffer cells (DLBCL, EZH2 A677G), 96 hours incubation, H3K27me3 ELISA, absorbance at 450 nm, read-out: IC50
[4] = Pfeiffer cells (DLBCL, EZH2 A677G), 96 hours incubation, H3K27me3 ELISA, absorbance at 450 nm, read-out: IC50

Compound	IC50 [1, 3] [nM]	IC50 [2] [nM]	IC50 ([1]; Homo sapiens, Pfeiffer, 96 h) [nM]	IC50 [1, 4] [nM]
Cc1[nH]c(=O)c(CN2CCc3ccc(OC(C)C)c(Cl)c3C2=O)c2occc12 [Example 6, 7-((8-chloro-7-isopropoxy-1-oxo-3,4-dihydroisoquinolin-2(1H)-yl)methyl)-4-methylfuro[3,2-c]pyridin-6(5H)-one]	44	7		
Cc1[nH]c(=O)c(CN2CCc3c(Cl)cc(OC(C)C)c(Cl)c3C2=O)c2occc12 [Example 1, 7-((5,8-dichloro-7-isopropoxy-1-oxo-3,4-dihydroisoquinolin-2(1H)-yl)methyl)-4-methylfuro[3,2-c]pyridin-6(5H)-one]		6	759	
COC(c1cc(Cl)c2c(c1Cl)C(=O)N(Cc1c(=O)[nH]c(C)c3ccoc13)CC2)C1CN(C)C1 (centres unmarked) [Example 10, 7-((5,8-dichloro-7-(methoxy(1-methylazetidin-3-yl)methyl)-1-oxo-3,4-dihydroisoquinolin-2(1H)-yl)methyl)-4-methylfuro[3,2-c]pyridin-6(5H)-one]	336			
COC(c1cc(Cl)c2c(c1Cl)C(=O)N(Cc1c(=O)[nH]c(C)c3[nH]ccc13)CC2)C1COC1 (centres unmarked) [Example 17, 5,8-dichloro-7-[methoxy(oxetan-3-yl)methyl]-2-[(7-methyl-5-oxo-1,6-dihydropyrrolo[2,3-c]pyridin-4-yl)methyl]-3,4-dihydroisoquinolin-1-one]		1		
COC(c1cc(Cl)c2c(c1Cl)C(=O)N(Cc1c(=O)[nH]c(C)c3ccoc13)CC2)C1CS(=O)(=O)C1 (centres unmarked) [Example 18, 7-((5,8-dichloro-7-((1,1-dioxidothietan-3-yl)(methoxy)methyl)-1-oxo-3,4-dihydroisoquinolin-2(1H)-yl)methyl)-4-methylfuro[3,2-c]pyridin-6(5H)-one]	78	2		
Cc1noc(C)c1-c1cc(Cl)c2c(c1Cl)C(=O)N(Cc1c(=O)[nH]c(C)c3ccoc13)CC2 [Example 16, 7-((5,8-dichloro-7-(3,5-dimethylisoxazol-4-yl)-1-oxo-3,4-dihydroisoquinolin-2(1H)-yl)methyl)-4-methylfuro[3,2-c]pyridin-6(5H)-one]	7	3		
Cc1[nH]c(=O)c(CN2CCc3c(Cl)cc(C(C)C4COC4)c(Cl)c3C2=O)c2cc[nH]c12 (centres unmarked) [Example 19, 5,8-dichloro-2-[(7-methyl-5-oxo-1,6-dihydropyrrolo[2,3-c]pyridin-4-yl)methyl]-7-[1-(oxetan-3-yl)ethyl]-3,4-dihydroisoquinolin-1-one]	78	2		
CCN(c1cc(Cl)c2c(c1Cl)C(=O)N(Cc1c(=O)[nH]c(C)c3ccoc13)CC2)C1CCOCC1 [Example 3, 7-((5,8-dichloro-7-(ethyl(tetrahydro-2H-pyran-4-yl)amino)-1-oxo-3,4-dihydroisoquinolin-2(1H)-yl)methyl)-4-methylfuro[3,2-c]pyridin-6(5H)-on]	31	5		
Cc1noc(C)c1-c1cc(Cl)c2c(c1Cl)C(=O)N(Cc1c(=O)[nH]c(C)c3[nH]ccc13)CC2 [Example 13, 5,8-dichloro-7-(3,5-dimethylisoxazol-4-yl)-2-((7-methyl-5-oxo-5,6-dihydro-1H-pyrrolo[2,3-c]pyridin-4-yl)methyl)-3,4-dihydroisoquinolin-1 (2H)-one]		2		
Cc1[nH]c(=O)c(CN2CCc3c(Cl)cc(N4CC5(CCOCC5)C4)c(Cl)c3C2=O)c2cc[nH]c12 [Example 5, 5,8-dichloro-2-((7-methyl-5-oxo-5,6-dihydro-1H-pyrrolo[2,3-c]pyridin-4-yl)methyl)-7-(7-oxa-2-azaspiro[3.5]nonan-2-yl)-3,4-dihydroisoquinolin-1(2H)-one]	17	< 0.5		
Cc1cc2c(C)[nH]c(=O)c(CN3CCc4c(Cl)cc(OC(C)C)c(Cl)c4C3=O)c2o1 [Example 8, 7-((5,8-dichloro-7-isopropoxy-1-oxo-3,4-dihydroisoquinolin-2(1H)-yl)methyl)-2,4-dimethylfuro[3,2-c]pyridin-6(5H)-one]		95		
5,8-dichloro-7-(3,5-dimethyltriazol-4-yl)-2-[(7-methyl-5-oxo-1,6-dihydropyrrolo[2,3-c]pyridin-4-yl)methyl]-3,4-dihydroisoquinolin-1-one [Example 15]		2		6
COC(c1cc(Cl)c2c(c1Cl)C(=O)N(Cc1c(=O)[nH]c(C)c3sccc13)CC2)C1COC1 (centres unmarked) [Example 12, 4-((5,8-dichloro-7-(methoxy(oxetan-3-yl)methyl)-1-oxo-3,4-dihydroisoquinolin-2(1H)-yl)methyl)-7-methylthieno[2,3-c]pyridin-5(6H)-one]	330	37		
COC(c1cc(Cl)c2c(c1Cl)C(=O)N(Cc1c(=O)[nH]c(C)c3ccoc13)CC2)C1COC1 (centres unmarked) [Example 9, 7-((5,8-dichloro-7-(methoxy(oxetan-3-yl)methyl)-1-oxo-3,4-dihydroisoquinolin-2(1H)-yl)methyl)-4-methylfuro[3,2-c]pyridin-6(5H)-one]		4	126	
Cc1[nH]c(=O)c(CN2CCc3c(Cl)cc(N4CC5(CCOCC5)C4)c(Cl)c3C2=O)c2occc12 [Example 2, 7-((5,8-dichloro-1-oxo-7-(7-oxa-2-azaspiro[3.5]nonan-2-yl)-3,4-dihydroisoquinolin-2(1H)-yl)methyl)-4-methylfuro[3,2-c]pyridin-6(5H)-one]	273	5		
Cc1[nH]c(=O)c(CN2CCc3c(Cl)cc(OC(C)C)c(Cl)c3C2=O)c2cc[nH]c12 [Example 4, 5,8-dichloro-7-isopropoxy-2-((7-methyl-5-oxo-5,6-dihydro-1H-pyrrolo[2,3-c]pyridin-4-yl)methyl)-3,4-dihydroisoquinolin-1(2H)-one]	1040	202		
7-[[5-bromo-8-chloro-7-(3,5-dimethyltriazol-4-yl)-1-oxo-3,4-dihydroisoquinolin-2-yl]methyl]-4-methyl-5H-furo[3,2-c]pyridin-6-one [Example 7]		3		30
COC(c1cc(Cl)c2c(c1Cl)C(=O)N(Cc1c(=O)[nH]c(C)c3[nH]ccc13)CC2)C1CN(C)C1 (centres unmarked) [Example 11, 5,8-dichloro-7-(methoxy(1-methylazetidin-3-yl)methyl)-2-((7-methyl-5-oxo-5,6-dihydro-1H-pyrrolo[2,3-c]pyridin-4-yl)methyl)-3,4-dihydroisoquinolin-1(2H)-one]	12	10		

— patent US10266542B2, “EZH2 inhibitors” (priority 2017, dated 2019)
